Reference: patent publication US20250032429A1, “2-FLUORODESCHLO[…] TREATMENT OF DEPRESSION, INCLUDING TREATMENT-RESISTANT DEPRESSION” (CLEARMIND MEDICINE INC., priority 2021, published 2025)
Counter-ions that a name gives are not always drawn.

Experiments:
[1] = Dose-response of arylcyclohexamines: intensity of experience after nasal spray, Shulgin + rating; type: in vivo; details: for Ketamine effect / 2-DCK effect / 2-FDCK effect / OPCE effect: nasal spray, Shulgin + scale as 1-4; for dose-response curve (shape): administered in the same way, FIG. 1, FIG. 2; for dosage effective as lower threshold: initial experimentation, logarithmic dosing
Experimental: For safety reasons, when exploring novel psychoactives—the logarithmic scale is adopted for initial dosing to get an idea of whether or not a compound is active and if so, at what dosage ranges.
Following this initial experimentation with OPCE, 2-DCK, and 2-FDCK (Ketamine was later added to the study for reference) it was clear that dosages of 3 mg, 15 mg, and 30 mg, correspondingly, were effective as lower thresholds for further exploration. It was decided to multiply the lower threshold doses by 2, 3 & 4 to explore the effects of higher doses on the mind. Every several days a portion of one of the compounds was measured out on an Ohaus Scout balance scale and prepared for administration via nasal spray using a refillable nasal spray bottle.
The goals were to score a “+” ranking for effect and keep an open mind to look out for any other noteworthy observations. The Shulgin “+” based rating system (SHULGIN, A. T., & SHULGIN, A. (1991). Pihkal: a chemical love story. Berkeley, CA, Transform Press, page 964) for psychedelic experiences was chosen for a yearlong exploration of these various arylcylohexamines. Although the target family of molecules and the type of experience were different from the rating systems' original design, the scale's simplicity yields itself particularly well to this kind of exploration for a few reasons: • (1) The experience rendered by novel psychedelics is often ineffable.
It was therefore desirable to use the simple +, ++, +++, ++++ as 1, 2, 3, 4 to rate intensity of experience without seeking an objective measure for intensity.
When the dosages are adjusted to units that make all dose/response curves fit on the same graph then running a spline through the data points gives us curves that resemble, qualitatively, the curves appearing in FIG. 2.

[2] = system: patients with major depressive disorders; details: cited from earlier work
[3] = system: C57BL/6N mice; experiment: Mouse forced swim test (FST), two-day paradigm; type: in vivo; details: i.p. in saline 30 minutes prior to FST; day 2, final 4 minutes of 6 minute session; vs vehicle
Experimental: Male 10 week C57BL/6N mice (Taconic) are acclimated to a holding facility one week prior to testing. A two-day FST paradigm is employed, in which mice are exposed to a 10 minute test in absence of drug, and are tested the following day in presence of drug in a 6 minute test. 2-FDCK is administered intraperitoneally (i.p.) in saline vehicle 30 minutes prior to FST. All animals are drug naïve and not previously exposed to behavioral testing.
Male C57BL6N/Tac mice 10 weeks of age are housed four mice per cage under a 12:12 h light/dark cycle and are allowed to acclimate for approximately one week prior to behavioral procedures. Food and water is provided ad libitum. All procedures followed the National Institutes of Health Guide for the Care and Use of Laboratory Animals.
2-FDCK is dissolved in a saline vehicle (0.9% sodium chloride). For the 2-FDCK dose response experiment, mice receive vehicle or varying doses of 2-FDCK i.p. 30 minutes prior to behavior testing.
Mice are tested in a two day forced swim test (FST) procedure. […] On day 2, mice receive i.p. injections 30 minutes prior to being placed in a cylinder for a 6 minute session and immobility time is scored during the final 4 minutes.

[4] = system: N-methyl-D-aspartate (NMDA) receptor; details: S-enantiomer compared with ketamine; cited from earlier work

## CNC1(c2ccccc2Cl)CCCCC1=O (racemic) [Ketamine]
[1]; dosage 28 (mg)
  Ketamine effect: 1
[1]; dosage 31 (mg)
  Ketamine effect: 1
[1]; dosage 32 (mg)
  Ketamine effect: 1
[1]; dosage 55 (mg)
  Ketamine effect: 2
[1]; dosage 58 (mg)
  Ketamine effect: 2
[1]; dosage 59 (mg)
  Ketamine effect: 2
[1]; dosage 62 (mg)
  Ketamine effect: 2
[1]; dosage 89 (mg)
  Ketamine effect: 3
[1]; dosage 90 (mg)
  Ketamine effect: 4
[1]; dosage 92 (mg)
  Ketamine effect: 4
[1]; dosage 114 (mg)
  Ketamine effect: 4
[1]; dosage 120 (mg)
  Ketamine effect: 4
[1]; dosage 122 (mg)
  Ketamine effect: 4
[2]
  onset of antidepressant effect: rapid antidepressant effect, acting within two hours

## CNC1(c2ccccc2)CCCCC1=O (centres unmarked) [2-DCK]
[1]
  dose-response curve (shape): dose-response curves that start rising sharply at low doses
  dosage effective as lower threshold: 15 mg
[1]; dosage 15 (mg)
  2-DCK effect: 1
[1]; dosage 16 (mg)
  2-DCK effect: 1
[1]; dosage 17 (mg)
  2-DCK effect: 1
[1]; dosage 18 (mg)
  2-DCK effect: 1
[1]; dosage 28 (mg)
  2-DCK effect: 3
[1]; dosage 29 (mg)
  2-DCK effect: 3
[1]; dosage 31 (mg)
  2-DCK effect: 3
[1]; dosage 33 (mg)
  2-DCK effect: 3
[1]; dosage 42 (mg)
  2-DCK effect: 4
[1]; dosage 43 (mg)
  2-DCK effect: 4
[1]; dosage 44 (mg)
  2-DCK effect: 4
[1]; dosage 45 (mg)
  2-DCK effect: 4
[1]; dosage 46 (mg)
  2-DCK effect: 4
[1]; dosage 57 (mg)
  2-DCK effect: 4
[1]; dosage 58 (mg)
  2-DCK effect: 4
[1]; dosage 61 (mg)
  2-DCK effect: 4
[1]; dosage 62 (mg)
  2-DCK effect: 4

## CNC1(c2ccccc2F)CCCCC1=O (centres unmarked) [2-FDCK, 2-(2-fluorophenyl)-2-(methylamino)cyclohexan-1-one]
[1]
  dose-response curve (shape): flatter than the dose-response curve for Ketamine
  dosage effective as lower threshold: 30 mg
[1]; dosage 28 (mg)
  2-FDCK effect: 1
[1]; dosage 29 (mg)
  2-FDCK effect: 1
[1]; dosage 30 (mg)
  2-FDCK effect: 1
[1]; dosage 31 (mg)
  2-FDCK effect: 1
[1]; dosage 32 (mg)
  2-FDCK effect: 1
[1]; dosage 33 (mg)
  2-FDCK effect: 1
[1]; dosage 35 (mg)
  2-FDCK effect: 1
[1]; dosage 55 (mg)
  2-FDCK effect: 2
[1]; dosage 57 (mg)
  2-FDCK effect: 2
[1]; dosage 58 (mg)
  2-FDCK effect: 2
[1]; dosage 61 (mg)
  2-FDCK effect: 2
[1]; dosage 62 (mg)
  2-FDCK effect: 2
[1]; dosage 88 (mg)
  2-FDCK effect: 3
[1]; dosage 90 (mg)
  2-FDCK effect: 3
[1]; dosage 91 (mg)
  2-FDCK effect: 3
[1]; dosage 114 (mg)
  2-FDCK effect: 4
[1]; dosage 116 (mg)
  2-FDCK effect: 4
[1]; dosage 122 (mg)
  2-FDCK effect: 4
[1]; dosage 124 (mg)
  2-FDCK effect: 4
[1]; in treating patients with depression, specifically TRD
  dose response curve (shape) compared to S-ketamine: flatter dose response curve compared to S-ketamine
[3]
  immobility time: shorter immobility times relative to mice receiving vehicle alone

## CCNC1(c2ccccc2)CCCCC1=O (centres unmarked) [OPCE]
[1]
  dose-response curve (shape): dose-response curves that start rising sharply at low doses
  dosage effective as lower threshold: 3 mg
[1]; dosage 3 (mg)
  OPCE effect: 1
[1]; dosage 4 (mg)
  OPCE effect: 1
[1]; dosage 6 (mg)
  OPCE effect: 1
[1]; dosage 9 (mg)
  OPCE effect: 2
[1]; dosage 11 (mg)
  OPCE effect: 4
[1]; dosage 12 (mg)
  OPCE effect: 4

## CN[C@]1(c2ccccc2Cl)CCCCC1=O [S-ketamine, (S)-2-(2-chlorophenyl)-2-(methylamino)cyclohexanone hydrochloride]
[4]
  potency or affinity for the NMDA receptor: higher potency or affinity for the NMDA reception
